Results reported in US4652566A, “Benzofuran derivatives, processes for preparing the same and antihypertensive agents containing the same” (Kaken Pharmaceutical Co., Ltd., priority 1984, dated 1987).
Where a name gives a salt, the structure may show the parent alone.

Experiments:
[1] = target: T1, calcium antagonism (thoracic aorta spiral specimen, contraction by calcium) (Cavia porcellus, UniProt O35505); experiment: Calcium antagonistic effect (contraction response by calcium of spiral thoracic aorta specimen, Magnus method); set-up: species or system Hartly male giunea pig; conditions: guinea pig thoracic aorta; for Kb: antagonism of calcium contraction, read-out: Calcium antagonistic effect, pA2 value (converted)
T1 construct: from tissue; host or cells: thoracic aorta spiral strip of male Hartley guinea pig
T1 sequence (O35505 whole entry): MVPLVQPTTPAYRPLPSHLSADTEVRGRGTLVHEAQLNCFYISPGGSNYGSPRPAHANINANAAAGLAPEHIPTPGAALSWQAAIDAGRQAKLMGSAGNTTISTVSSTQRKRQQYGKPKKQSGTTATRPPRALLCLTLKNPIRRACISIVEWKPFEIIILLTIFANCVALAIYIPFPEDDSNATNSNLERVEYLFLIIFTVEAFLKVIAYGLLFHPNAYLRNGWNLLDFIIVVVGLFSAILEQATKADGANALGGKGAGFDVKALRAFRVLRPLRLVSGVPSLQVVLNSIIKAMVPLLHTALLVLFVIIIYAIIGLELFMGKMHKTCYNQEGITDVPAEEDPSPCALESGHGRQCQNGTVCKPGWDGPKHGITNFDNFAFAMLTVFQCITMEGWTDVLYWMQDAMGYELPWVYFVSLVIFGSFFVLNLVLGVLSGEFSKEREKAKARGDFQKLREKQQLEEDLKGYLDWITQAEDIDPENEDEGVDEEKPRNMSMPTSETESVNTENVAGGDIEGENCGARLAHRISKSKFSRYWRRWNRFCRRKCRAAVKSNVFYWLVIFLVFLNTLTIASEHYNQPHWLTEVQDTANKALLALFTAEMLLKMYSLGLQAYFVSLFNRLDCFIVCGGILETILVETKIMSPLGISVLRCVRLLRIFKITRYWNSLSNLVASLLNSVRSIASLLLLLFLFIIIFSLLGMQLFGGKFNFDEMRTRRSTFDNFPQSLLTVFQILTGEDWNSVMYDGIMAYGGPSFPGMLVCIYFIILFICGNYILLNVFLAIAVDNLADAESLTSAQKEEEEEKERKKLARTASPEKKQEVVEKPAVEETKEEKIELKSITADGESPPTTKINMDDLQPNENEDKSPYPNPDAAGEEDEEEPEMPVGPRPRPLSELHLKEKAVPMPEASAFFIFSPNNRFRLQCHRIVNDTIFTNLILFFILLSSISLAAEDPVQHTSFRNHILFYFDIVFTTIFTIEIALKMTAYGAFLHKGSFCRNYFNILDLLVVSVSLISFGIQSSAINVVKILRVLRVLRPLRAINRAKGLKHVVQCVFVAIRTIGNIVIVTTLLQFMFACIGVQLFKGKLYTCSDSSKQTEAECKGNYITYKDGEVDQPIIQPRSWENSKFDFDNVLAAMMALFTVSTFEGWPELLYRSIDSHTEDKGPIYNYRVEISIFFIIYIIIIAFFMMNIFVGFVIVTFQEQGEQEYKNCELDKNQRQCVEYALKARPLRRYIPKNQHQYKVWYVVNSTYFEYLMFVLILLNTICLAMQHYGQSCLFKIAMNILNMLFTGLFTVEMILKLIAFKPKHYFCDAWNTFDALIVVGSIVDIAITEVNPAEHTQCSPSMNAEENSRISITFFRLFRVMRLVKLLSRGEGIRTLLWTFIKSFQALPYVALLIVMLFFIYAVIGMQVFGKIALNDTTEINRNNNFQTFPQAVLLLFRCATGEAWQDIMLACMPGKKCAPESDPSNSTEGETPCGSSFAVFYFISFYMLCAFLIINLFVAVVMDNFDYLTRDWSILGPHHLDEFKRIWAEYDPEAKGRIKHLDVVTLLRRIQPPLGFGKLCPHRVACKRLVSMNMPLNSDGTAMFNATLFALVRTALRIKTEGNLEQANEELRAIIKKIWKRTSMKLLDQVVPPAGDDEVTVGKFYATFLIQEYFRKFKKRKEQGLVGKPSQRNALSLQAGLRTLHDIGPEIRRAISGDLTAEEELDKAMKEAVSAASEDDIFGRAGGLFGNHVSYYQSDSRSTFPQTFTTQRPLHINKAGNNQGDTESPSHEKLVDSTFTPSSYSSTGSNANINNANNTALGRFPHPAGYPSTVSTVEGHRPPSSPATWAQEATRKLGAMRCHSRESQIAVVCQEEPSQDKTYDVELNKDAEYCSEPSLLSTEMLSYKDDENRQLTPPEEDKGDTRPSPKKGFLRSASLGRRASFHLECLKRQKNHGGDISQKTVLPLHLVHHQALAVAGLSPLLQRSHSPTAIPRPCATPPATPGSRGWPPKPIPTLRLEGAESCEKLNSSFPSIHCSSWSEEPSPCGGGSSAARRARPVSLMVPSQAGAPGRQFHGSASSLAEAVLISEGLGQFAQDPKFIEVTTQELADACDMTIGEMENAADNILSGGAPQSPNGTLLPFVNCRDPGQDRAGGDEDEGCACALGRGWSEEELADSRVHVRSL
Procedure: [Calcium antagonistic effect]
Using a spiral blood vessel specimen taken from a thoracic aorta of Hartly male giunea pig weighed 400 to 600 g, a contraction response by calcium was measured as a dose-response curve according to Magnus method and the antagonistic activity for each test compound was indicated as above-mentioned pA2 value.

[2] = Increasing effect on a coronary blood flow (anesthetized dog); type: in vivo; conditions: administered once into perfusion channel
Procedure: [Increasing effect on a coronary blood flow]
Adult dog weighed 9 to 13 kg which was anesthetized intravenously with 30 mg/kg of pentobarbiturate was used for this experiment. The animal was cut open at a chest under a condition of an artificial respiration. After an intravenous injection of 1000 U/kg of heparin, a glass cannula was inserted into coronary ramus circumflexus by way of a left subclavina artery and a perfusion was carried out with blood introduced from a right carotid artery. A blood flow was measured by means of a electromagnetic flowmeter set up at a perfusion channel.
Each of test compounds was dissolved in a physiologic salt solution and the solution was administered once into a perfusion channel. An increase of a coronary blood flow was indicated as a percentage of an increasing rate.
For the purpose of a comparison, the same experiment as mentioned above was carried out on Papavelin which was commonly used as coronary vasodilator.

[3] = target: T2, α-adrenergic blockade (vas deferens specimen, contraction by noradrenalin) (Rattus norvegicus, UniProt P43140); experiment: α-Adrenergic blockade effect (contraction response by noradrenalin of vas deferens specimen, Magnus method); set-up: species or system Wister male rat; conditions: for Kb: rat vas deferens, antagonism of noradrenalin contraction, pA2 = negative logarithm of antagonist dose shifting agonist curve two times, read-out: α-Adrenergic blockade effect, pA2 value (converted)
T2 construct: from tissue; host or cells: vas deferens of six-week-old male Wistar rat
T2 sequence (P43140 1-466): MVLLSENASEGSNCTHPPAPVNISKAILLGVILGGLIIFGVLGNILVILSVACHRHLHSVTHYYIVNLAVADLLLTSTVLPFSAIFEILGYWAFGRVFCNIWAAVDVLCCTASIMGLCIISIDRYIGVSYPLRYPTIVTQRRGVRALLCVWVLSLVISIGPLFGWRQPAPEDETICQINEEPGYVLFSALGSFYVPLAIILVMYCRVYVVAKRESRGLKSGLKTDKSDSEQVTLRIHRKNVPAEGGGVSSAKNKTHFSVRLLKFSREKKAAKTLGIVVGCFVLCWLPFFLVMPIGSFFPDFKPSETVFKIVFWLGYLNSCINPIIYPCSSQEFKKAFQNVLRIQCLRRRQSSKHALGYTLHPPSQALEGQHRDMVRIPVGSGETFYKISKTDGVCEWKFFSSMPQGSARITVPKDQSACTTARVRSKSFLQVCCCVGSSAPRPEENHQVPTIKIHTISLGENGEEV

[4] = Accute toxicity test (LD50 value); conditions: mouse, in vivo; mice; single oral administration; deaths by seventh day; Litchfield-Wilcoxon
Procedure: [Accute toxicity test (LD50 value)]
The experiment was carried out using six weeks old ddy male mice.
Each of test compounds was suspended in an aqueous solution containing 5% by weight of acasia and the suspension was administered compulsorily once orally with a gastric probe. Within six hours after the start of the administration, the behavior of tested mice were observed consecutively. Thereafter, the observation was made at an interval of twenty four hours during 7 days and an accumulative number of deaths seventh day since the start of the administration was measured.
LD50 value was calculated according to the Litchfield-Wilcoxon method.

[5] = Antihypertensive effect and effect on heart rate in spontaneously hypertensive rat (SHR); type: in vivo; conditions: po, single dose
Procedure: [Antihypertensive effect and effect on a heart rate on rat suffering from a spontaneously hypertensive rat (SHR)]
A blood pressure was measured under no anesthetic condition by means of an apparatus for recording a blood pressure of a tail artery and a heart rate (Riken Kaihatsu Co., Ltd.) (PS-802) and at the same time a heart rate was also measured.
Each of test compounds was dissolved or suspended in an aqueous solution containing 5% by weight of acasia and the obtained solution or suspension was administered once orally to SHR which had been kept under a fast condition for one night. A blood pressure and a heart rate were measured before administration and after one hour, three hours, five hours and seven hours of it and the maximum value of changes were calculated by comparing the value measured before administration with the value measured after administration.
For the purpose of a comparison, the same experiment as mentioned above was carried out on both Labetalol and Diltiazem as mentioned above.
With respect to a dosage, 100 mg/kg and 10 mg/kg as to compounds obtained by Examples 2, 5, 6, 9 and 18 to 23 were respectively administered, 100 mg/kg as to compounds obtained by Examples 1, 3, 4, 7 and 10 to 17 was respectively administered.

[6] = 100 mg/kg, maximum over 1, 3, 5, 7 hours (Table 3)
[7] = 10 mg/kg, maximum over 1, 3, 5, 7 hours (Table 2)
[8] = 100 mg/kg, maximum over 1, 3, 5, 7 hours (Table 2)

SMILES	Kb [1]	Increasing rated of coronary blood flow when administered with a 1 mg [2]	Kb [3]	LD50 at 168 h [4]	Maximum value of change, heart rate [5, 6]	Maximum value of change, systolic pressure [5, 6]	Maximum value of change, heart rate [5, 7]	Maximum value of change, systolic pressure [5, 7]	Maximum value of change, heart rate [5, 8]	Maximum value of change, systolic pressure [5, 8]	α-Adrenergic blockade effect, relative ratio as compared with Phentolamine [3]	Calcium antagonistic effect, relative ratio as compared with Diltiazem ([1]; Diltiazem = 1.0)
CC(=O)c1cc2cccc(OCC(O)CN3CCN(c4cccc(Cl)c4)CC3)c2o1 (stereo not shown) [Ex. 8 (HCl salt), 2-acetyl-7-{3-[4-(3-chlorophenyl)piperazinyl]-2-hydroxypropoxy}benzofuran]	0.0851 µM	96.3 ± 13.1%	0.468 µM	> 1000 mg/kg	-98.4 ± 17.2 beats/min	-44.2 ± 8.4 mmHg						
COc1ccccc1N1CCN(CC(O)COc2cccc3cc(C(N)=O)oc23)CC1 (stereo not shown) [Ex. 9, 2-carbamoyl-7-{2-hydroxy-3-[4-(2-methoxyphenyl)-piperazinyl]propoxy}benzofuran]	0.631 µM	105.6 ± 11.8%	0.0275 µM	> 1500 mg/kg			-154.2 ± 17.3 beats/min	-61.2 ± 4.3 mmHg	-69.2 ± 12.1 beats/min	-75.6 ± 2.4 mmHg		
COc1ccccc1N1CCN(CC(O)COc2ccc3cc(C(N)=O)oc3c2)CC1 (stereo not shown) [Ex. 11, 2-carbamoyl-6-{2-hydroxy-3-[4-(2-methoxyphenyl)piperazinyl]propoxy}benzofuran]	0.158 µM		0.0575 µM	> 1500 mg/kg	-126.5 ± 27.3 beats/min	-78.8 ± 7.6 mmHg						
COc1ccc(Cc2nccc3cc(OC)c(OC)cc23)cc1OC [papavelin, Papavelin, reference compound]		136.3 ± 27.0%										
COc1ccc(N2CCN(CC(O)COc3cccc4cc(C(N)=O)oc34)CC2)cc1 (stereo not shown) [Ex. 10, 2-carbamoyl-7-{2-hydroxy-3-[4-(4-methoxyphenyl)piperazinyl]porpoxy,}benzofuran]	1.26 µM		0.0871 µM	1100 mg/kg	-80.0 ± 37.6 beats/min	-97.9 ± 4.0 mmHg					1.8	
Cc1ccccc1N1CCN(CC(O)COc2cccc3cc(C(N)=O)oc23)CC1 (stereo not shown) [Ex. 13, 2-carbamoyl-7-{2-hydroxy-3-[4-(2-methylphenyl)piperazinyl]propoxy}benzofuran]	1.35 µM		0.24 µM	> 1500 mg/kg	-80.0 ± 16.6 beats/min	-97.0 ± 9.8 mmHg						
COc1ccccc1N1CCN(CC(O)COc2cccc3cc(C#N)oc23)CC1 (stereo not shown) [Ex. 16 (HCl salt), 2-cyano-7-{2-hydroxy-3-[4-(2-methoxyphenyl)piperazinyl]-propoxy} benzofuran]	0.513 µM		0.0427 µM	900 mg/kg	-189.6 ± 26.8 beats/min	-13.3 ± 4.6 mmHg						
COc1ccccc1N1CCN(CC(O)COc2cccc3cc(C(C)=O)oc23)CC1 (stereo not shown) [Ex. 2 (HCl salt), 2-acetyl-7-{2-hydroxy-3-[4-(2-methoxyphenyl)piperazinyl]-propoxy}benzofuran]	0.195 µM	88.4 ± 14.2%	0.0389 µM									
COc1ccccc1N1CCN(CC(O)COc2ccc3cc(C(C)=O)oc3c2)CC1 (stereo not shown) [Ex. 4 (HCl salt), 2-acetyl-6-{2-hydroxy-3-[4-(2-methoxyphenyl)piperazinyl]-propoxy}benzofuran]	0.525 µM		0.0224 µM	> 1000 mg/kg	-172.5 ± 23.9 beats/min	-114.2 ± 1.7 mmHg						
COc1ccc(N2CCN(CC(O)COc3cccc4cc(C(C)=O)oc34)CC2)cc1 (stereo not shown) [Ex. 3 (HCl salt), 2-acetyl-7-{2-hydroxy-3-[4-(4-methoxyphenyl)piperazinyl]-propoxy}benzofuran]	0.631 µM		0.457 µM	700 mg/kg	-200.0 ± 28.4 beats/min	-22.9 ± 1.7 mmHg						
Cc1ccccc1N1CCN(CC(O)COc2ccc3cc(C(N)=O)oc3c2)CC1 (stereo not shown) [Ex. 14, 2-carbamoyl-6-{2-hydroxy-3-[4-(2-methylphenyl)piperazinyl]-propoxy}benzofuran]	0.182 µM		0.11 µM	> 1000 mg/kg	-132.9 ± 28.8 beats/min	-67.3 ± 6.8 mmHg						
COc1ccccc1N1CCN(CC(O)COc2ccc3oc(C(C)=O)cc3c2)CC1 (stereo not shown) [Ex. 5 (HCl salt)]	0.0468 µM	107.5 ± 6.5%	0.049 µM	> 1500 mg/kg							3.2	1.9
COc1ccccc1N1CCN(CC(O)COc2cccc3cc(C(C)O)oc23)CC1 (stereo not shown) [Ex. 22, 2-(1-hydroxyethyl)-7-{2-hydroxy-3-[4-(2-methoxyphenyl)piperazinyl]propoxy}benzofuran]	1.05 µM	87.7 ± 9.4%	0.0501 µM	> 1500 mg/kg			-149.2 ± 15.3 beats/min	-42.8 ± 6.7 mmHg	-160.2 ± 19.8 beats/min	-69.5 ± 7.9 mmHg		
CC(=O)c1cc2cccc(OCC(O)CN3CCN(c4ccccc4)CC3)c2o1 (stereo not shown) [Ex. 1 (HCl salt), 2-acetyl-7-[3-(4-phenylpiperazinyl)-2-hydroxypropoxy]benzofuran]	2.95 µM		0.209 µM	> 1000 mg/kg	-105.8 ± 3.4 beats/min	-74.6 ± 5.6 mmHg						
